A short description of experiment [1]: Inhibition of catalytic subunit of protein kinase A (PKA) from bovine heart. Details: species or system Bos taurus.
Experiment [2] deals with Casein kinase II (Homo sapiens) (UniProt P67870+P68400+P19784). The experiment in a line: Specific activity against Casein kinase II (CK II). The format is protein-complex assay. The conditions noted are these: Bos taurus.
For experiment [3], the target named is Cyclin-dependent kinase 1/cyclin B (Homo sapiens) (UniProt P06493+P14635+Q8WWL7+O95067). The experiment in a line: Specific activity against Cyclin dependent kinase 1-cyclin B. It is filed as protein-complex assay.
The target of experiment [4] is Cyclin-dependent kinase 1/cyclin B (Homo sapiens, UniProt P06493). The experiment can be described thus: Inhibition of Cyclin dependent kinase 1-cyclinB. It is filed as protein-complex assay.
A further experiment is filed under the species Bos taurus. The experiment in a line: Specific activity against Protein kinase A (PKA) from bovine heart.

Experimental findings from ChEMBL document CHEMBL1135834, “First non-ATP competitive glycogen synthase kinase 3 beta (GSK-3beta) inhibitors: thiadiazolidinones (TDZD) as potential drugs for the treatment of Alzheimer's disease” (J Med Chem, 2002) are described below.

Some results are limits rather than exact numbers.

On to `Cn1sc(=O)n(Cc2ccccc2)c1=O`, for which the half-maximal inhibitory concentration (IC50) in experiment [1] and in experiment [4] was above 100 µM throughout. This compound registered a Specific activity (uM Pi/min/mg protein) in experiment [2] of 0.4. Moreover, the figures for the Specific activity (nM Pi min-1 (mg of protein)-1) (in experiment [3]; in the experiment listed under Bos taurus) were 0.4 and 4, respectively.
